Earlier results as cited in patent US20020132296A1, “Human Ste20-like stress activated serine/threonine kinase” (priority 1997, published 2002).

Tests used:
[1] = tested on: LPS-stimulated macrophages

Structure (SMILES): C[S+]([O-])c1ccc(-c2nc(-c3ccncc3)c(-c3ccc(F)cc3)[nH]2)cc1 (centres unmarked) [SB203580]
- production of TNF and IL-1 [1]: inhibit
- production of TNF, IL-6 and IL-8 (TNF-stimulated HUVECs): inhibit
